Data on 12 compounds can be found in ChEMBL document CHEMBL1201862, “PubChem BioAssay data set” (2004).

Among the test systems are EKVX; M14; LOX IMVI; OVCAR-3; Malme-3M; SF-295; SK-OV-3; UACC-257; NCI-H522; SNB-19; SK-MEL-2; HOP-92; HCT-116; LXFL 529; CCRF-CEM; DU-145; Hs-578T; SR; MDA-MB-231; NCI/ADR-RES.
Assay in all cases: NCI anticancer screen, dose series, 48 h

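Compound exposure: 48 hours, 5 concentrations, 96-well plates. At the GI50, growth is halved.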 Active and inactive are the calls of the source. Rule as the data show it: active = GI50 up to about 1.1 µM and inactive = higher.

Take `Cc1ccc2nc(NC(=O)C(=O)C(C#N)c3nc4ccccc4s3)sc2c1` (stereo unspecified): the GI50 was 39 µM (inactive) in the assay on EKVX; 33.8 µM (inactive) in the assay with M14; 37.2 µM (inactive) in the assay on LOX IMVI; 23.4 µM (inactive) in the assay on OVCAR-3; 43.7 µM (inactive) with Malme-3M; 37.2 µM (inactive) in the assay with SF-295. Further, the GI50 was 55.8 µM (inactive) in the assay with SK-OV-3; 28 µM (inactive) with UACC-257; 32.1 µM (inactive) in the assay on NCI-H522; 31.8 µM (inactive) with SNB-19; 32.4 µM (inactive) in the assay on SK-MEL-2; 26.4 µM (inactive) with HOP-92. For the same compound, the GI50 with HCT-116 is 38.4 µM (inactive); with LXFL 529, 28.4 µM (inactive).

In the case of `COC(=O)C1=Cc2cc(OC)c(OC)c(OC)c2[C@H](c2cc(OC)c(OC)c(OC)c2)C1C(=O)OC` (stereo partly specified), the GI50 with EKVX, in the assay with M14, in the assay on LOX IMVI, with OVCAR-3, in the assay with Malme-3M and with SF-295 was > 100 µM (inactive) each time. Moreover, the GI50 with SK-OV-3 was > 100 µM (inactive); in the assay on UACC-257 it was > 100 µM (inactive); in the assay with NCI-H522 it was > 100 µM (inactive); in the assay on SNB-19 it was > 100 µM (inactive); in the assay with HOP-92, 1.73 µM (inactive); in the assay with HCT-116, > 100 µM (inactive). Further, the GI50 with LXFL 529 and in the assay with CCRF-CEM was > 100 µM (inactive) each time.

As for `COC(=O)/C(C#N)=C1\CCC(OC)N1C` (stereo unspecified), the GI50 in the assay on EKVX, with M14, in the assay on LOX IMVI, with OVCAR-3, in the assay with Malme-3M and in the assay on SF-295 was > 100 µM (inactive) each time. The GI50 with SK-OV-3, in the assay on UACC-257, with NCI-H522, in the assay with SNB-19, in the assay on SK-MEL-2 and in the assay on HCT-116 was > 100 µM (inactive) throughout. Besides, the GI50 in the assay on LXFL 529 and with CCRF-CEM was > 100 µM (inactive) in each case.

Turning to `NC1=Nc2ccccc2Sc2nncn21`, the GI50 with DU-145, with EKVX, with M14, with Hs-578T, in the assay with LOX IMVI and in the assay on OVCAR-3 was > 100 µM (inactive) throughout. In addition, the GI50 was > 100 µM (inactive) in the assay on Malme-3M; > 100 µM (inactive) in the assay with SF-295; > 100 µM (inactive) with SK-OV-3; > 100 µM (inactive) with UACC-257; 77.6 µM (inactive) in the assay on NCI-H522; > 100 µM (inactive) in the assay on SR. Also, the GI50 is > 100 µM (inactive) with SNB-19; > 100 µM (inactive) with SK-MEL-2; > 100 µM (inactive) in the assay with HOP-92; > 100 µM (inactive) in the assay on HCT-116; 85.3 µM (inactive) with MDA-MB-231; > 100 µM (inactive) in the assay with NCI/ADR-RES. Besides, the GI50 in the assay on CCRF-CEM was > 100 µM (inactive).

Take `BrC12C3C4C5C(C(C43)C13OCCO3)C52` (stereo unspecified): the GI50 with EKVX, in the assay with LOX IMVI, in the assay with OVCAR-3, in the assay on Malme-3M, in the assay with SF-295 and in the assay on SK-OV-3 was > 100 µM (inactive) each time. For the same compound, the GI50 was > 100 µM (inactive) in the assay on UACC-257; > 100 µM (inactive) with NCI-H522; > 100 µM (inactive) with SNB-19; > 100 µM (inactive) in the assay on SK-MEL-2; 58.1 µM (inactive) in the assay with HOP-92; > 100 µM (inactive) in the assay on HCT-116. The GI50 in the assay with LXFL 529 and in the assay with CCRF-CEM was > 100 µM (inactive) each time.

Regarding `CCOC(=O)N(C)C1(c2ccccc2)CCN(CCCC(=O)c2ccc(F)cc2)CC1`, the GI50 is > 100 µM (inactive) in the assay on DU-145; > 100 µM (inactive) in the assay with EKVX; 17.2 µM (inactive) in the assay on M14; 49 µM (inactive) with Hs-578T; 20.9 µM (inactive) in the assay with LOX IMVI; 44 µM (inactive) in the assay with OVCAR-3. Besides, the GI50 in the assay with Malme-3M was 15.3 µM (inactive); in the assay on SF-295 it was 42.4 µM (inactive); in the assay with SK-OV-3, > 100 µM (inactive); in the assay with UACC-257, 20.3 µM (inactive); in the assay on NCI-H522 it was 87.9 µM (inactive); with SR it was 19.8 µM (inactive). The GI50 with SNB-19 was 0.0647 µM (active); with SK-MEL-2, 21.5 µM (inactive); in the assay on HOP-92, 34.8 µM (inactive); in the assay with HCT-116 it was 32.2 µM (inactive); in the assay on MDA-MB-231 it was 39.4 µM (inactive); in the assay on NCI/ADR-RES it was 47.8 µM (inactive). For the same compound, the GI50 in the assay on CCRF-CEM was 31.7 µM (inactive).

With `NC(=S)NC/C=C/Cl`, the GI50 with DU-145, with EKVX, in the assay with M14, in the assay with Hs-578T, in the assay with LOX IMVI and in the assay with OVCAR-3 was > 100 µM (inactive) in each case. The GI50 with Malme-3M was > 100 µM (inactive); in the assay on SF-295, > 100 µM (inactive); in the assay with SK-OV-3, > 100 µM (inactive); with UACC-257, > 100 µM (inactive); in the assay on NCI-H522, 86.5 µM (inactive); in the assay on SR it was > 100 µM (inactive). Besides, the GI50 in the assay with SNB-19, in the assay with SK-MEL-2, in the assay on HOP-92, with HCT-116, in the assay on MDA-MB-231 and in the assay with NCI/ADR-RES was > 100 µM (inactive) throughout. The GI50 in the assay with CCRF-CEM was > 100 µM (inactive).

`CCOC(=O)NC(NC1=NCCS1)(C(=O)OCC)C(F)(F)F` (stereo unspecified): the GI50 in the assay on DU-145, in the assay with EKVX, in the assay on M14, in the assay with Hs-578T, with LOX IMVI and with OVCAR-3 was > 100 µM (inactive) in each case. The GI50 with Malme-3M, in the assay with SF-295, with SK-OV-3, in the assay with UACC-257, in the assay with NCI-H522 and in the assay on SR was > 100 µM (inactive) throughout. Further, the GI50 in the assay with SNB-19, in the assay with SK-MEL-2, with HOP-92, with HCT-116, in the assay on MDA-MB-231 and with NCI/ADR-RES was > 100 µM (inactive) each time. Besides, in the assay with CCRF-CEM, the GI50 is > 100 µM (inactive).

As to `CCN(CC)CCN(C)CCc1ccc(Br)cc1`, the GI50 with DU-145 is > 100 µM (inactive); in the assay on EKVX, > 100 µM (inactive); with M14, 17.2 µM (inactive); in the assay on Hs-578T, 21.7 µM (inactive); with LOX IMVI, 42.9 µM (inactive); with OVCAR-3 it was > 100 µM (inactive). Further, the GI50 in the assay on Malme-3M is > 100 µM (inactive); with SF-295 it was 51.5 µM (inactive); with SK-OV-3, > 100 µM (inactive); with UACC-257, 37.6 µM (inactive); in the assay on NCI-H522, 69.3 µM (inactive); in the assay with SR it was > 100 µM (inactive). In addition, the GI50 with SNB-19 is > 100 µM (inactive); in the assay on SK-MEL-2, > 100 µM (inactive); in the assay on HOP-92 it was 27.4 µM (inactive); with HCT-116, 59.8 µM (inactive); in the assay with MDA-MB-231, 54.3 µM (inactive); in the assay with NCI/ADR-RES, 79.4 µM (inactive). In addition, the GI50 with CCRF-CEM is 51.8 µM (inactive).

For the compound `CC(=O)O[C@@H]1CC(C)C2CC2C2=C(C(O)OC2O)[C@@H]1C(C)CCC=C(C)C` (stereo partly specified), the GI50 with EKVX was 40 µM (inactive); in the assay on M14, 31 µM (inactive); in the assay with LOX IMVI, 20.8 µM (inactive); in the assay with Malme-3M it was 27.8 µM (inactive); in the assay with UACC-257, 24.1 µM (inactive); in the assay with NCI-H522 it was 15.3 µM (inactive). Moreover, the GI50 is 33.7 µM (inactive) with SNB-19; 29.9 µM (inactive) in the assay with SK-MEL-2; 12.8 µM (inactive) in the assay with HOP-92; 18.4 µM (inactive) with HCT-116; 27.6 µM (inactive) with LXFL 529; 24.8 µM (inactive) in the assay on CCRF-CEM.

`COC(=O)c1ccccc1CC1Cc2cc3c(cc2C1)CCC3`: the GI50 is 40.5 µM (inactive) in the assay with DU-145; 45.5 µM (inactive) in the assay on EKVX; 38.8 µM (inactive) in the assay with M14; 45.8 µM (inactive) in the assay with Hs-578T; 24 µM (inactive) in the assay with LOX IMVI; 32.7 µM (inactive) in the assay on OVCAR-3. For the same compound, the GI50 with Malme-3M is 21.3 µM (inactive); in the assay on SF-295, 33.7 µM (inactive); in the assay on SK-OV-3 it was 49.4 µM (inactive); in the assay with UACC-257, 31.2 µM (inactive); in the assay with NCI-H522, 28.6 µM (inactive); in the assay with SR, 5.58 µM (inactive). The GI50 with SNB-19 was 74.1 µM (inactive); with SK-MEL-2, 19.4 µM (inactive); in the assay with HOP-92, 26.9 µM (inactive); with HCT-116, 22.1 µM (inactive); in the assay on MDA-MB-231, 55.1 µM (inactive); in the assay with NCI/ADR-RES, > 100 µM (inactive). Besides, the GI50 in the assay on CCRF-CEM is 20.4 µM (inactive).

Turning to `CCCCCCCCCCC/C=C(/C(=O)CCCO[Si](C)(C)C(C)(C)C)C(=O)OC`, the GI50 in the assay on DU-145, in the assay on EKVX, in the assay with M14, with Hs-578T, in the assay with LOX IMVI and in the assay on OVCAR-3 was > 100 µM (inactive) each time. Also, the GI50 in the assay on Malme-3M, in the assay with SF-295, with SK-OV-3, with UACC-257, in the assay on NCI-H522 and with SR was > 100 µM (inactive) in each case. The GI50 in the assay on SNB-19, in the assay on SK-MEL-2, with HOP-92, with HCT-116, in the assay on MDA-MB-231 and in the assay with NCI/ADR-RES was > 100 µM (inactive) each time. For the same compound, the GI50 in the assay with CCRF-CEM is > 100 µM (inactive).
